What was measured:
otitis externa [1] = experiment: Photodisinfection of otitis externa treatment site (Examples V to VII); assay type: in vivo
Description: A photosensitizing composition comprising of methylene blue at a concentration of about 0.1 wt % is applied to the otitis externa treatment site. Light at a wavelength range from about 650 nm to about 680 nm is applied to the photosensitizing composition located within the otitis externa treatment site for a period from about 6 minutes to about 10 minutes using a laser with power at about 80 mW. The otitis externa was ameliorated.
A photosensitizing composition comprising of methylene blue at a concentration range of from about 0.001 wt % to about 0.1 wt % is applied to the otitis externa treatment site. Light at a wavelength range from about 650 nm to about 680 nm is applied to the photosensitizing composition located within the treatment site for a period from about 1 minute to about 20 minutes using a laser with power at a range from about 50 mW to about 300 mW. The otitis externa was ameliorated.
A photosensitizing composition comprising of toluidine blue at a concentration range of from about 0.001% wt % to about 0.1 wt % is applied to the otitis externa treatment site. Light at a wavelength range from about 620 nm to about 650 nm is applied to the photosensitizing composition located within the otitis externa treatment site for a period from about 1 minute to about 20 minutes using a laser with power at a range from about 50 mW to about 300 mW. The otitis externa was ameliorated.
For Examples V to VII, it was shown that there is a general inverse relationship between (1) the photosensitizer concentration and (2) the photodisinfection treatment time and/or the amount of power required for the light source. For example, higher concentration of photosensitizer requires less treatment time and/or lower light source power. Conversely, lower concentration of photosensitizer requires longer treatment time and/or higher light source power. Also, less treatment time requires higher concentration of photosensitizer and/or higher light source power.

biofilms of MRSA = experiment: Photodisinfection of MRSA biofilms in vitro (methylene blue + Periowave laser); assay type: cell-based, Methicillin-resistant Staphylococcus aureus; conditions: biofilm; for reduction of MRSA: at least 0.02 wt % methylene blue, laser about 665-675 nm for at least 15 seconds (at least 2.25 J/cm^2)
Excerpt: (§1) Photodisinfection treatments using methods contemplated by the present invention have been tested against MRSA, Escherichia coli (E. coli), and Enterococcus fecalis (E. fecalis) in vitro and reached high levels of disinfection in within seconds to one minute. Photosensitizing composition comprising of methylene blue at various concentrations ranging from about 0.005 wt % to 0.1 wt % was applied to biofilms of MRSA, E. coli and E. fecalis for about ten seconds. These biofilms were then illuminated by a laser light system at a wavelength of about 665 nm to about 675 nm for a period from about 0 seconds to about 60 seconds (e.g., accumulated energy level of about 0 J/cm^2 to about 9 J/cm^2). The laser light system used was the Periowave™ system which includes a low-intensity laser with power at about 240 mW and the optical probe described in PCT Patent Publication No. WO2006115761.

biofilms of E. coli = experiment: Photodisinfection of E. coli biofilms in vitro (methylene blue + Periowave laser); assay type: cell-based, Escherichia coli; conditions: biofilm; for reduction of E. coli: at least 0.02 wt % methylene blue, laser about 665-675 nm for at least 15 seconds (at least 2.25 J/cm^2)
Excerpt: as §1

biofilms of E. fecalis = experiment: Photodisinfection of E. fecalis biofilms in vitro (methylene blue + Periowave laser); assay type: cell-based, Enterococcus fecalis; conditions: biofilm
Excerpt: as §1

MRSA biofilms = experiment: SEM evaluation of MRSA biofilms after photodisinfection; assay type: cell-based, Methicillin-resistant Staphylococcus aureus; conditions: about 0.1 wt % methylene blue, about 10 s contact; about 665-675 nm for about 30 seconds, Periowave laser; FIG. 34 vs FIG. 33
Description: (§2) Biofilms heavily colonized with one to four layers of MRSA organisms were contacted with a photosensitizing composition comprising methylene blue at a concentration of about 0.1 wt % for about 10 seconds and then illuminated at a wavelength of about 665 nm to about 675 nm for a period from about 30 seconds using the Periowave™ laser. Thereafter, these biofilms and the controlled MRSA biofilms (e.g., no photodisinfection treatment) were incubated overnight in 0.9 wt % saline and then fixed in 10 wt % Formalin for scanning electron microscope (SEM) evaluation.

E. coli biofilms = experiment: SEM evaluation of E. coli biofilms after photodisinfection; assay type: cell-based, Escherichia coli; conditions: about 0.1 wt % methylene blue, about 10 s contact; about 665-675 nm for about 30 seconds, Periowave laser; FIG. 36 vs FIG. 35
Description: as §2, with “to three” for “to four”, “of Escherichia coli (E. coli)” for “of MRSA”, “controlled E. coli” for “controlled MRSA”, “incubated for three hours” for “incubated overnight”, “in 0.9%” for “in 0.9 wt %”, “in 10%” for “in 10 wt %”

otitis externa [2] = experiment: Study on patients suffering otitis externa (photodisinfection); assay type: in vivo, human
Description: A study was conducted on patients suffering otitis externa. During the study, a photosensitizing composition comprising of methylene blue at a concentration of about 0.01 wt % was applied using a cotton swab to the treatment site as shown in FIG. 37. Thereafter and referring to FIGS. 38-39, light at a wavelength range from about 665 nm to about 675 nm was applied to the photosensitizing composition located within the treatment site 64 for a period from about 3 minutes to about 5 minutes (3-5 repetitive one minute cycles) using the Periowave™ laser light system.

[3] = methylene blue about 0.02-0.1 wt % and a low power laser (about 240 mW)

SMILES | outcome of otitis externa (otitis externa [1]; Example VII: about 0.001-0.1 wt % toluidine blue, about 620-650 nm for about 1-20 minutes, laser about 50-300 mW) | reduction of MRSA (biofilms of MRSA; about 10 s contact) | reduction of MRSA (biofilms of MRSA) | elimination of MRSA by photodisinfection (biofilms of MRSA; [3]) | reduction of E. coli (biofilms of E. coli; about 10 s contact) | reduction of E. coli (biofilms of E. coli) | elimination of E. coli by photodisinfection (biofilms of E. coli; [3]) | reduction of E. fecalis (biofilms of E. fecalis; at least 0.02 wt % methylene blue, laser about 665-675 nm for at least 15 seconds (at least 2.25 J/cm^2)) | elimination of E. Fecalis by photodisinfection (biofilms of E. fecalis; [3]) | reduction of MRSA in SEM photograph vs controlled biofilm (MRSA biofilms) | reduction of E. coli in SEM photograph vs controlled biofilm (E. coli biofilms) | outcome of severe otitis externa (otitis externa [2]; patients with severe otitis externa, about 2 to 5 additional treatments, same protocol, over about one to two weeks) | outcome of otitis externa (otitis externa [2]; patients, about 0.01 wt % methylene blue by cotton swab, about 665-675 nm for about 3-5 minutes, Periowave laser, many patients) | outcome of otitis externa (otitis externa [1]; Example V: about 0.1 wt % methylene blue, about 650-680 nm for about 6-10 minutes, laser about 80 mW) | outcome of otitis externa (otitis externa [1]; Example VI: about 0.001-0.1 wt % methylene blue, about 650-680 nm for about 1-20 minutes, laser about 50-300 mW)
Cc1cc2nc3ccc(N(C)C)cc3[s+]c2cc1N.[Cl-] [toluidine blue] | ameliorated |  |  |  |  |  |  |  |  |  |  |  |  |  | 
CN(C)c1ccc2nc3ccc(=[N+](C)C)cc-3sc2c1 [methylene blue] |  | at least three | over 90% | effectively eliminated | at least three | over 90% | effectively eliminated | over 90% | effectively eliminated | substantial reduction of MRSA | substantial reduction of E. coli | also ameliorated | ameliorated | ameliorated | ameliorated

From patent US20070255357A1, “NASAL DECO[…] MICROBES” (Ondine International, Ltd., priority 2006, published 2007)
